Reference: ChEMBL document CHEMBL5055643, “Sophoraflavanone G Resensitizes ABCG2-Overexpressing Multidrug-Resistant Non-Small-Cell Lung Cancer Cells to Chemotherapeutic Drugs” (J Nat Prod, 2021)

Columns and labels:
ABCG2 [1] = experiment: Resistance factor, ratio of IC50 for becatecarin-selected ABCG2-overexpressing human A549/Bec150 cells to IC50 for human A549 cells; type: ADME; settings: read-out: Ratio IC50
NCI-H460 [2] = experiment: Chemo-sensitizing activity against mitoxantrone-selected ABCG2-overexpressing human NCI-H460/MX20 cells assessed as reversal fold at 1 uM measured after 72 hrs in presence of mitoxantrone by CCK8 assay relative to control; type: functional
NCI-H460 [3] = experiment: Chemo-sensitizing activity against human NCI-H460 cells assessed as reversal fold at 5 uM measured after 72 hrs in presence of topotecan by CCK8 assay relative to control; type: functional
NCI-H460 [4] = experiment: Chemo-sensitizing activity against mitoxantrone-selected ABCG2-overexpressing human NCI-H460/MX20 cells assessed as reversal fold at 2 uM measured after 72 hrs in presence of topotecan by CCK8 assay relative to control; type: functional
A549 [5] = experiment: Chemo-sensitizing activity against human A549 cells assessed as reversal fold at 1 uM measured after 72 hrs in presence of mitoxantrone by CCK8 assay relative to control; type: functional
A549 [6] = experiment: Chemo-sensitizing activity against becatecarin-selected ABCG2-overexpressing human A549/Bec150 cells assessed as reversal fold at 2 uM measured after 72 hrs in presence of mitoxantrone by CCK8 assay relative to control; type: functional
A549 [7] = experiment: Chemo-sensitizing activity against human A549 cells assessed as reversal fold at 1 uM measured after 72 hrs in presence of topotecan by CCK8 assay relative to control; type: functional
A549 [8] = experiment: Chemo-sensitizing activity against human A549 cells assessed as reversal fold at 5 uM measured after 72 hrs in presence of topotecan by CCK8 assay relative to control; type: functional
A549 [9] = experiment: Chemo-sensitizing activity against becatecarin-selected ABCG2-overexpressing human A549/Bec150 cells assessed as reversal fold at 5 uM measured after 72 hrs in presence of topotecan by CCK8 assay relative to control; type: functional
HEK293 [10] = experiment: Chemo-sensitizing activity against human HEK293 cells assessed as reversal fold at 2 uM measured after 72 hrs in presence of topotecan by CCK8 assay relative to control; type: functional
HEK293 [11] = experiment: Chemo-sensitizing activity against ABCG2-overexpressing human HEK293 cells assessed as reversal fold at 1 uM measured after 72 hrs in presence of topotecan by CCK8 assay relative to control; type: functional
HEK293 [12] = experiment: Chemo-sensitizing activity against human HEK293 cells assessed as reversal fold at 5 uM measured after 72 hrs in presence of SN-38 by CCK8 assay relative to control; type: functional
OVCAR-8 = experiment: Chemo-sensitizing activity against human OVCAR-8 cells assessed as reversal fold at 5 uM measured after 72 hrs in presence of paclitaxel by CCK8 assay relative to control; type: functional
NCI/ADR-RES = experiment: Chemo-sensitizing activity against ABCB1-overexpressing human NCI/ADR-RES cells assessed as reversal fold at 5 uM measured after 72 hrs in presence of colchicine by CCK8 assay relative to control; type: functional
KB 3-1 [13] = experiment: Chemo-sensitizing activity against human KB 3-1 cells assessed as reversal fold at 5 uM measured after 72 hrs in presence of vincristine by CCK8 assay relative to control; type: functional
KB 3-1 [14] = experiment: Chemo-sensitizing activity against human KB 3-1 cells assessed as reversal fold at 1 uM measured after 72 hrs in presence of paclitaxel by CCK8 assay relative to control; type: functional
KB 3-1 [15] = experiment: Chemo-sensitizing activity against human KB 3-1 cells assessed as reversal fold at 5 uM measured after 72 hrs in presence of paclitaxel by CCK8 assay relative to control; type: functional
KB 3-1 [16] = experiment: Chemo-sensitizing activity against human KB 3-1 cells assessed as reversal fold at 5 uM measured after 72 hrs in presence of colchicine by CCK8 assay relative to control; type: functional
KB-V1 = experiment: Chemo-sensitizing activity against ABCB1-oveexpressing human KB-V1 cells assessed as reversal fold at 5 uM measured after 72 hrs in presence of colchicine by CCK8 assay relative to control; type: functional
HEK293 [17] = experiment: Chemo-sensitizing activity against human HEK293 cells assessed as reversal fold at 5 uM measured after 72 hrs in presence of vincristine by CCK8 assay relative to control; type: functional
HEK293 [18] = experiment: Chemo-sensitizing activity against human HEK293 cells assessed as reversal fold at 5 uM measured after 72 hrs in presence of colchicine by CCK8 assay relative to control; type: functional
HEK293 [19] = experiment: Chemo-sensitizing activity against ABCB1-overexpressing human HEK293/MDR19 cells assessed as reversal fold at 5 uM measured after 72 hrs in presence of colchicine by CCK8 assay relative to control; type: functional
ABCG2 [20] = biological target: T1, ABCG2 (Homo sapiens, UniProt Q9UNQ0); experiment: Inhibition of ABCG2 in mitoxantrone-selected ABCG2-overexpressing human NCI-H460/MX20 cells assessed as increase in intracellular mitoxantrone accumulation at 20 uM incubated for 1 hr in presence of mitoxantrone by flow cytometry; type: cell-based; settings: probe mitoxantrone
T1 sequence (Q9UNQ0 whole entry): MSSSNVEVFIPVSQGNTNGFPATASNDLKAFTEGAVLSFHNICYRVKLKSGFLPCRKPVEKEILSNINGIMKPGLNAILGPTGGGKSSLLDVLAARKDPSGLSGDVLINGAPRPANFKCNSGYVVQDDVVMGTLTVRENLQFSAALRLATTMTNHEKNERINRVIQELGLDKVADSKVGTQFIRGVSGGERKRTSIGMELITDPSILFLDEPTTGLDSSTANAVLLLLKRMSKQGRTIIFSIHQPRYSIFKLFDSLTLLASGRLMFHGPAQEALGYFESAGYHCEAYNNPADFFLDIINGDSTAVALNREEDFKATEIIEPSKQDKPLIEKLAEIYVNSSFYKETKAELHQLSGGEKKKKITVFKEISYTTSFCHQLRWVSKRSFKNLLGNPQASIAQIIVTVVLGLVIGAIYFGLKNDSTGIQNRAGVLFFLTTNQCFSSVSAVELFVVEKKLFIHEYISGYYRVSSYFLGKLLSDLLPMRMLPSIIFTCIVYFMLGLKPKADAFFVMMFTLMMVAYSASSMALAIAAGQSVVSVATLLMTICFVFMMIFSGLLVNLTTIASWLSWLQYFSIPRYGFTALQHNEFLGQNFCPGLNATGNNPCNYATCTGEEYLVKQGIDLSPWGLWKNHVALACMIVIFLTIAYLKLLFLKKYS

[21] = biological target: T2, Broad substrate specificity ATP-binding cassette transporter ABCG2 (Homo sapiens, UniProt Q9UNQ0); experiment: Inhibition of ABCG2 in mitoxantrone-selected ABCG2-overexpressing human NCI-H460/MX20 cells assessed as increase in intracellular mitoxantrone accumulation incubated for 1 hr in presence of mitoxantrone by flow cytometry; type: cell-based
T2 sequence (Q9UNQ0 whole entry): T1 sequence (Q9UNQ0 whole entry)

[22] = Cytotoxicity against human NCI-H460 cells assessed as cell viability at 1 to 5 uM measured after 72 hrs by CCK8 assay; type: cell-based; settings: dose 1-5 µM, read-out: Activity
[23] = Cytotoxicity against becatecarin-selected ABCG2-overexpressing human A549/Bec150 cells assessed as cell viability at 1 to 5 uM measured after 72 hrs by CCK8 assay; type: ADME, cell-based; settings: dose 1-5 µM, read-out: Activity

For `C=C(C)[C@H](CC=C(C)C)Cc1c(O)cc(O)c2c1O[C@H](c1ccc(O)cc1O)CC2=O` [SOPHORAFLAVANONE G], which selectivity ratio (ABCG2 [1]) is on record?
Its selectivity ratio is 0.8.

And the “fold change (FC)” value (NCI-H460 [2])?
The value was 1.9.

And the “fold change (FC)” value (NCI-H460 [3])?
Its value is 3.

And the “fold change (FC)” value (NCI-H460 [4])?
Its value is 7.2.

And the “fold change (FC)” value (A549 [5])?
The value was 1.2.

And the “fold change (FC)” value (A549 [6])?
The value was 5.9.

What about the “fold change (FC)” value (A549 [7]) of the same compound?
The value was 1.1.

And the “fold change (FC)” value (A549 [8])?
Its value is 1.4.

And the “fold change (FC)” value (A549 [9])?
Its value is 2.9.

What about the “fold change (FC)” value (HEK293 [10]) of the same compound?
Its value is 0.9.

And the “fold change (FC)” value (HEK293 [11])?
The value was 1.7.

And the “fold change (FC)” value (HEK293 [12])?
The value was 1.

And the “fold change (FC)” value (OVCAR-8)?
The value was 1.1.

What about the “fold change (FC)” value (NCI/ADR-RES) of the same compound?
Its value is 0.7.

What about the “fold change (FC)” value (KB 3-1 [13]) of the same compound?
The value was 1.7.

What about the “fold change (FC)” value (KB 3-1 [14]) of the same compound?
Its value is 0.9.

What about the “fold change (FC)” value (KB 3-1 [15]) of the same compound?
The value was 1.1.

What about the “fold change (FC)” value (KB 3-1 [16]) of the same compound?
The value was 1.1.

And the “fold change (FC)” value (KB-V1)?
The value was 0.8.

What about the “fold change (FC)” value (HEK293 [17]) of the same compound?
The value was 0.9.

And the “fold change (FC)” value (HEK293 [18])?
The value was 1.

And the “fold change (FC)” value (HEK293 [19])?
Its value is 0.6.

What about the inhibition at 1 h, 20 µM (ABCG2 [20]) of the same compound?
Its inhibition at 1 h, 20 µM is 100%.

What about the IC50 [21] of the same compound?
The IC50 was 2.12 µM.

And the “inhibition (INH)” value ([21]; human, nci-h460, 1 h, time 1 hrs)?
Its value is “Dose-dependent effect”.

And the viability at 72 h, 5 µM [22]?
Its viability at 72 h, 5 µM is > 90%.

What about the viability at 72 h, up to 5 µM [23] of the same compound?
The viability at 72 h, up to 5 µM was > 90%.
